Laboratory results as given in PMC8713164, “Development of a 1,2,4-Triazole-Based Lead Tankyrase Inhibitor: Part II” (Journal of Medicinal Chemistry, 2021).
Converted amounts (≈) assume the structure as drawn. Like-named read-outs stand apart in the source and are kept apart here.

Columns and labels:
[1] = test system: WNT/β-catenin signaling; settings: cited from earlier work
[2] = test system: COLO 320DM cells; settings: cited from earlier work
[3] = set-up: method as in PMID 32511917; settings: PBS pH = 7; cited from earlier work
[4] = test system: Caco-2; settings: cited from earlier work
[5] = set-up: method as in PMID 32511917; settings: cited from earlier work
[6] = set-up: method as in PMID 32511917; settings: cited from earlier work; remark: listed apart in the source
[7] = set-up: method as in PMID 32511917; settings: cited from earlier work; remark: listed apart in the source
[8] = test system: Cerep Safety panel 44 targets; set-up: method as in PMID 32511917; settings: 10 μM; cited from earlier work
[9] = test system: A2A; settings: 10 μM; cited from earlier work
[10] = mouse PO 5 mg/kg; cited from earlier work
[11] = target: T1, TNKS2 (Homo sapiens, UniProt Q9H2K2); assay: TNKS2 biochemical assay (unreacted NAD+ fluorescence); settings: TNKS2 5 nM, 500 nM NAD+, 20 h; quadruplicates; 95% confidence intervals in parentheses; 24: averages of multiple independent measurements; read-out: IC50 TNKS2
T1 construct: TNKS2 (residues 873–1162); made in house
T1 sequence (Q9H2K2 873-1162): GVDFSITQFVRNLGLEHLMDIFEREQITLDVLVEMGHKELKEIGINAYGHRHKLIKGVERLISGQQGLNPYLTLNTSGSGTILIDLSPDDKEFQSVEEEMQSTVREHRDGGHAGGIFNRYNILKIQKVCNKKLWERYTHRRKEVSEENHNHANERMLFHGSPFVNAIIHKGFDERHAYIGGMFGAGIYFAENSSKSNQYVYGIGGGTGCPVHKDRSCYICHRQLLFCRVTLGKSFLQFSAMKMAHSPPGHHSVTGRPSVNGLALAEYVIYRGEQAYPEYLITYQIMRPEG
Procedure: New compounds were prepared in half-log dilution series, and the reactions were carried out in quadruplicates with protein and compound controls to exclude the effect of compound autofluorescence. All reactions were performed at ambient temperature. TNKS1 (20 nM) or TNKS2 (5 nM) was incubated for 20 h in assay buffer (50 mM Bis-Tris propane (BTP), pH 7.0, 0.5 mM Tris(2-carboxyethyl)phosphine (TCEP), 0.01% Triton X-100) with compound and 10 μM or 500 nM NAD^+, respectively.

[12] = test system: WNT/β-catenin signaling; assay: cellular (HEK293) WNT/β-catenin signaling luciferase reporter assay; assay type: cell-based, human; settings: triplicates, 24: averages of multiple independent measurements
[13] = mouse peroral pharmacokinetic analysis; assay type: in vivo; settings: mouse PO 5 mg/kg; for AUC(0-inf) at 24 h / AUC(0-t) at 24 h / Cmax at 24 h / Tmax at 24 h / half-life at 24 h / MRT inf at 24 h: IRC, in vivo; for MRT inf at 24 h: read-out: MRT 0 → ∞
Procedure: The pharmacokinetic analyses in mice were performed according to the standard protocols of Medicilon as previously described[21] following approval by local animal experiment authorities (Shanghai, China) and in compliance with FELASA guidelines and recommendations. Three IRC mice were used per treatment group: 5 mg/kg 24 in 5% DMSO, 50% PEG400 (both Sigma-Aldrich), and 45% saline as vehicle.

[14] = kinetic solubility; assay type: physicochemical; settings: PBS pH = 7
Procedure: Kinetic solubility, microsomal stability, and plasma stability were determined following our internal protocol (Symeres). The Caco-2 and PPB determinations were performed by Cyprotex.

[15] = Homo sapiens, HEK293, read-out: IC50 HEK293, HEK293 WNT/β-catenin signaling reporter assay
[16] = read-out: IC50 HEK293, HEK293 WNT/β-catenin signaling reporter assay

| Compound | IC50 [11] [nM] | IC50 [12, 15] [nM] | IC50 [12, 16] [nM] | AUC(0-inf) at 24 h [13] [ng·h/mL] | AUC(0-t) at 24 h [13] [ng·h/mL] | Cmax at 24 h [13] [ng/mL] | Tmax at 24 h [13] [min] | half-life at 24 h [13] [min] | MRT inf at 24 h [13] [min] | CL [13] [mL/min/kg] | Vd [13] [L/kg] | solubility kinetic [14] [µM] | solubility kinetic at 1 h [14] [µM] | other results |
| --- | --- | --- | --- | --- | --- | --- | --- | --- | --- | --- | --- | --- | --- | --- |
| CCOc1ccc(-c2nnc([C@H]3C[C@H](NC(=O)c4ccccn4)C3)n2-c2ccccc2F)nc1 [Compound 1] | – | – | – | – | – | – | – | – | – | – | – | – | – | IC50 ([1]; HEK293 WNT/β-catenin signaling reporter assay): 19 nM; HEK293 reporter assay pIC50 ± SEM [1]: 19 (7.75 ± 0.067); COLO 320DM cells GI25 [2]: 94 nM; GI50 [2]: 650 nM; kinetic solubility [3]: >80 µM; Caco-2 A–B: Papp [4]: 39.5 10^–6 cm/s; microsomal stability human CLint [5]: < 5 μL/min/mg protein; microsomal stability mouse CLint ([6]; mouse): 27 μL/min/mg protein; Ames test [7]: nongenotoxic; Cerep Safety panel 44 targets (overall result) [8]: clean; Cerep Safety panel inhibition of A2A [9]: 53%; CL [10]: 34.8 mL/min/kg |
| CCOc1ccc(-c2nnc([C@H]3C[C@H](NC(=O)c4ccnc5cccnc45)C3)n2-c2ccccc2F)nc1 [Compound 15a] | – | – | – | – | – | – | – | – | – | – | – | – | – | metabolic stability in mouse microsomes [6]: high metabolic instability |
| CCOc1ccc(-c2nnc([C@H]3C[C@H](NC(=O)c4ccnc5cc(F)cnc45)C3)n2-c2ccncc2)nc1 [Compound 18b, N-(trans-3-(5-(5-Ethoxypyridin-2-yl)-4-(pyridin-4-yl)-4H-1,2,4-triazol-3-yl)cyclobutyl)-7-fluoro-1,5-naphthyridine-4-carboxamide] | 2.9 | 6 | 6.4 | 322 | 319 | 285 | 15 | 60 | 93.6 | 260 | 22.4 | > 80 | – | – |
| CCOc1ccc(-c2nnc([C@H]3C[C@H](NC(=O)c4ccnc5cccnc45)C3)n2-c2ccc(C)s2)nc1 [Compound 22a, N-(trans-3-(5-(5-Ethoxypyridin-2-yl)-4-(5-methylthiophen-2-yl)-4H-1,2,4-triazol-3-yl)cyclobutyl)-1,5-naphthyridine-4-carboxamide] | 0.73 | 0.81 | – | 547 | 543 | 779 | 15 | 70.2 | 83.4 | 152 | 15.5 | – | 50 (≈ 25.6 µg/mL) | – |
| Cc1cccc(-c2nnc([C@H]3C[C@H](NC(=O)c4cccc5nccnc45)C3)n2-c2ccccc2F)n1 [Compound 31a, N-(trans-3-(4-(2-Fluorophenyl)-5-(6-methylpyridin-2-yl)-4H-1,2,4-triazol-3-yl)cyclobutyl)quinoxaline-5-carboxamide] | 1.7 | 1.5 | – | 3400 | 3400 | 2770 | 15 | 45.6 | 74.4 | 24.5 | 1.61 | > 80 | – | – |
| Cc1cccc(-c2nnc([C@H]3C[C@H](NC(=O)c4cc(F)cc5nccnc45)C3)n2-c2ccccc2F)n1 [Compound 31b, N-(trans-3-(4-(2-Fluorophenyl)-5-(6-methylpyridin-2-yl)-4H-1,2,4-triazol-3-yl)cyclobutyl)-7-fluoroquinoxaline-5-carboxamide] | 1.6 | 0.17 | 0.169 | 5320 | 5310 | 5800 | 15 | 35.4 | 88.2 | 15.7 | 0.80 | – | 13 (≈ 6.47 µg/mL) | – |
